One block for each compound: values may come before it.
Assay: in vitro
Conditions: for Concentration (μM) of analyte PEA, 0 min / Concentration (μM) of analyte PEA, 10 min / Concentration (μM) of analyte PEA, 20 min / Concentration (μM) of analyte PEA, 30 min / Concentration (μM) of analyte PEA, 60 min / % Remaining of Initial (n = 1), 0 min / % Remaining of Initial (n = 1), 10 min / % Remaining of Initial (n = 1), 20 min / % Remaining of Initial (n = 1), 30 min / % Remaining of Initial (n = 1), 60 min / Measured concentration of PEA (analyte) / % Remaining of Initial: 1 μM
Procedure: Reaction mixture, minus cofactors, was prepared as described below. Test article was added into the reaction mixture at a final concentration of 1 μM. […] An aliquot of the reaction mixture (without cofactor cocktail) was equilibrated in a shaking water bath at 37° C. for 3 minutes. The reaction was initiated by the addition of cofactor cocktail (see below), and the mixture was then incubated in a shaking water bath at 37° C. Aliquots (100 μL) were withdrawn 0, 10, 20, 30 and 60 minutes. Test article samples were immediately combined with 300 μL of ice-cold acetonitrile containing 1% formic acid. Control samples were immediately combined with 400 μL of ice-cold 50/50 acetonitrile (ACN)/dH2O containing 0.1% formic acid and internal standard to terminate the reaction. Samples were then mixed and centrifuged to precipitate proteins. Calibration standards were prepared in matched matrix. Samples and standards were assayed by LC-MS/MS using electrospray ionization for both the dosed prodrug and the expected drug (PEA). Analytical conditions are outlined in Appendix 8-1. Test article concentration at each time point was compared to the test article concentration at time 0 to determine the percent remaining at each time point. Half-lives were calculated using GraphPad software, fitting to a single-phase exponential decay equation.
Reaction mixture, minus cofactors, was prepared as described below. Test article was added into the reaction mixture at a final concentration of 1 μM. […] An aliquot of the reaction mixture (without cofactor cocktail) was equilibrated in a shaking water bath at 37° C. for 5 minutes. Reaction was initiated by the addition of cofactor cocktail (see below), and mixture was then incubated in a shaking water bath at 37° C. Aliquots (100 μL) were withdrawn at 0, 10, 20, 30, and 60 minutes. Test article samples were immediately combined with 300 μL of ice-cold acetonitrile containing 1% formic acid. Control samples were immediately combined with 400 μL of ice-cold 50/50 acetonitrile (ACN)/dH2O containing 0.1% formic acid and internal standard to terminate the reaction. Samples were then mixed and centrifuged to precipitate proteins. Calibration standards were prepared in matched matrix. Samples and standards were assayed by LC-MS/MS using electrospray ionization for both dosed prodrug and expected drug (PEA). Analytical conditions are outlined in Appendix 10-1. Test article concentration at each time point was compared to test article concentration at time 0 to determine the percent remaining at each time point. Half-lives were calculated using GraphPad software, fitting to a single-phase exponential decay equation.
The reaction mixture, minus cofactors, was prepared as described below. Test article was added into the reaction mixture at a final concentration of 1 μM. […] An aliquot of the reaction mixture (without cofactor cocktail) was equilibrated in a shaking water bath at 37° C. for 3 minutes. Reaction was initiated by the addition of cofactor cocktail (see below), and the mixture was then incubated in a shaking water bath at 37° C. Aliquots (100 μL) were withdrawn at 0, 10, 20, 30, and 60 minutes. Test article samples were immediately combined with 300 μL of ice-cold acetonitrile containing 1% formic acid. Control samples were immediately combined with 400 μL of ice-cold 50/50 acetonitrile (ACN)/dH2O containing 0.1% formic acid and internal standard to terminate the reaction. Samples were then mixed and centrifuged to precipitate proteins. Calibration standards were prepared in matched matrix. Samples and standards were assayed by LC-MS/MS using electrospray ionization for both dosed prodrug and expected drug (PEA). Analytical conditions are outlined in Appendix 13-1. Test article concentration at each time point was compared to the test article concentration at time 0 to determine the percent remaining at each time point.

[1] = male, Sprague-Dawley, rat, 0 min
[2] = male, Sprague-Dawley, rat, 10 min
[3] = male, Sprague-Dawley, rat, 20 min
[4] = male, Sprague-Dawley, rat, 30 min
[5] = male, Sprague-Dawley, rat, 60 min
[6] = male, Sprague-Dawley, rat, s9, 0 h
[7] = male, Sprague-Dawley, rat, s9, 10 min
[8] = male, Sprague-Dawley, rat, s9, 20 min
[9] = male, Sprague-Dawley, rat, s9, 0.5 h
[10] = male, Sprague-Dawley, rat, s9, 1 h

Concentration (μM) of analyte PEA, 0 min (both, human, 0 min): 0.20 µM | Concentration (μM) of analyte PEA, 10 min (both, human, 10 min): 0.32 µM | Concentration (μM) of analyte PEA, 20 min (both, human, 20 min): 0.17 µM | Concentration (μM) of analyte PEA, 30 min (both, human, 30 min): 0.13 µM | Concentration (μM) of analyte PEA, 60 min (both, human, 60 min): 0.042 µM | % Remaining of Initial (n = 1), 0 min (both, human, s9, 0 h): 100% | % Remaining of Initial (n = 1), 10 min (both, human, s9, 10 min): 1.9% | % Remaining of Initial (n = 1), 20 min (both, human, s9, 20 min): <1.0% | % Remaining of Initial (n = 1), 30 min (both, human, s9, 0.5 h): <1.0% | % Remaining of Initial (n = 1), 60 min (both, human, s9, 1 h): <1.0% | Concentration (μM) of analyte PEA, 0 min (male, Beagle, dog, 0 min): 0.21 µM | Concentration (μM) of analyte PEA, 10 min (male, Beagle, dog, 10 min): 0.16 µM | Concentration (μM) of analyte PEA, 20 min (male, Beagle, dog, 20 min): 0.15 µM | Concentration (μM) of analyte PEA, 30 min (male, Beagle, dog, 30 min): 0.12 µM | Concentration (μM) of analyte PEA, 60 min (male, Beagle, dog, 60 min): 0.049 µM | % Remaining of Initial (n = 1), 0 min (male, Beagle, dog, s9, 0 h): 100% | % Remaining of Initial (n = 1), 10 min (male, Beagle, dog, s9, 10 min): <1.0% | % Remaining of Initial (n = 1), 20 min (male, Beagle, dog, s9, 20 min): <1.0% | % Remaining of Initial (n = 1), 30 min (male, Beagle, dog, s9, 0.5 h): <1.0% | % Remaining of Initial (n = 1), 60 min (male, Beagle, dog, s9, 1 h): <1.0% | half-life at 1 μM (male, Beagle, dog, s9, Half-life (min)): < 1 min | Concentration (μM) of analyte PEA, 0 min (male, CD-1, mouse, 0 min): 0.22 µM | Concentration (μM) of analyte PEA, 10 min (male, CD-1, mouse, 10 min): 0.22 µM | Concentration (μM) of analyte PEA, 20 min (male, CD-1, mouse, 20 min): 0.14 µM | Concentration (μM) of analyte PEA, 30 min (male, CD-1, mouse, 30 min): 0.084 µM | Concentration (μM) of analyte PEA, 60 min (male, CD-1, mouse, 60 min): 0.020 µM | % Remaining of Initial (n = 1), 0 min (male, CD-1, mouse, s9, 0 h): 100% | % Remaining of Initial (n = 1), 10 min (male, CD-1, mouse, s9, 10 min): 1.6% | % Remaining of Initial (n = 1), 20 min (male, CD-1, mouse, s9, 20 min): <1.0% | % Remaining of Initial (n = 1), 30 min (male, CD-1, mouse, s9, 0.5 h): <1.0% | % Remaining of Initial (n = 1), 60 min (male, CD-1, mouse, s9, 1 h): <1.0% | Concentration (μM) of analyte PEA, 0 min [1]: 0.045 µM | Concentration (μM) of analyte PEA, 10 min [2]: 0.15 µM | Concentration (μM) of analyte PEA, 20 min [3]: 0.16 µM | Concentration (μM) of analyte PEA, 30 min [4]: 0.12 µM | Concentration (μM) of analyte PEA, 60 min [5]: 0.039 µM | % Remaining of Initial (n = 1), 0 min [6]: 100% | % Remaining of Initial (n = 1), 10 min [7]: 43% | % Remaining of Initial (n = 1), 20 min [8]: 22% | % Remaining of Initial (n = 1), 30 min [9]: 11% | % Remaining of Initial (n = 1), 60 min [10]: 1.4%
SMILES: CCCCCCCCCCCCCCCC(=O)NCCOC(=O)CCC(=O)OC[C@H]1O[C@@](CO)(O[C@H]2O[C@H](CO)[C@@H](O)[C@H](O)[C@H]2O)[C@@H](O)[C@@H]1O [Compound I-7]

Measured concentration of PEA (analyte) (both, human, 0 min): 0.19 µM | Measured concentration of PEA (analyte) (both, human, 10 min): 0.57 µM | Measured concentration of PEA (analyte) (both, human, 20 min): 0.47 µM | Measured concentration of PEA (analyte) (both, human, 30 min): 0.41 µM | Measured concentration of PEA (analyte) (both, human, 60 min): 0.28 µM | % Remaining of Initial (both, human, s9, 0 h): 100% | % Remaining of Initial (both, human, s9, 10 min): 1.4% | % Remaining of Initial (both, human, s9, 20 min): <1.0% | % Remaining of Initial (both, human, s9, 0.5 h): <1.0% | % Remaining of Initial (both, human, s9, 1 h): <1.0% | half-life at 1 μM (both, human, s9, Half-life): < 10 min | Measured concentration of PEA (analyte) (male, Beagle, dog, 0 min): 0.13 µM | Measured concentration of PEA (analyte) (male, Beagle, dog, 10 min): 0.33 µM | Measured concentration of PEA (analyte) (male, Beagle, dog, 20 min): 0.34 µM | Measured concentration of PEA (analyte) (male, Beagle, dog, 30 min): 0.33 µM | Measured concentration of PEA (analyte) (male, Beagle, dog, 60 min): 0.20 µM | % Remaining of Initial (male, Beagle, dog, s9, 0 h): 100% | % Remaining of Initial (male, Beagle, dog, s9, 10 min): 32% | % Remaining of Initial (male, Beagle, dog, s9, 20 min): 11% | % Remaining of Initial (male, Beagle, dog, s9, 0.5 h): 3.5% | % Remaining of Initial (male, Beagle, dog, s9, 1 h): <1.0% | half-life at 1 μM (male, Beagle, dog, s9, Half-life): < 10 min | Measured concentration of PEA (analyte) (male, CD-1, mouse, 0 min): 0.29 µM | Measured concentration of PEA (analyte) (male, CD-1, mouse, 10 min): 0.50 µM | Measured concentration of PEA (analyte) (male, CD-1, mouse, 20 min): 0.44 µM | Measured concentration of PEA (analyte) (male, CD-1, mouse, 30 min): 0.38 µM | Measured concentration of PEA (analyte) (male, CD-1, mouse, 60 min): 0.37 µM | % Remaining of Initial (male, CD-1, mouse, s9, 0 h): 100% | % Remaining of Initial (male, CD-1, mouse, s9, 10 min): 4.6% | % Remaining of Initial (male, CD-1, mouse, s9, 20 min): 1.0% | % Remaining of Initial (male, CD-1, mouse, s9, 0.5 h): <1.0% | % Remaining of Initial (male, CD-1, mouse, s9, 1 h): <1.0% | half-life at 1 μM (male, CD-1, mouse, s9, Half-life): < 10 min | half-life at 1 μM (male, CD-1, mouse, s9, Half-life, calculated value in parentheses): 2.3 min | Measured concentration of PEA (analyte) [1]: 0.069 µM | Measured concentration of PEA (analyte) [2]: 0.17 µM | Measured concentration of PEA (analyte) [3]: 0.092 µM | Measured concentration of PEA (analyte) [4]: 0.061 µM | Measured concentration of PEA (analyte) [5]: 0.013 µM | % Remaining of Initial [6]: 100% | % Remaining of Initial [7]: 17% | % Remaining of Initial [8]: 2.8% | % Remaining of Initial [9]: <1.0% | % Remaining of Initial [10]: <1.0% | half-life at 1 μM (male, Sprague-Dawley, rat, s9, Half-life): < 10 min | half-life at 1 μM (male, Sprague-Dawley, rat, s9, Half-life, calculated value in parentheses): 3.9 min
SMILES: CCCCCCCCCCCCCCCC(=O)NCCOC(=O)CCC(=O)OC(CO)CO [Compound I-8]

From patent publication US11547681B2, “N-acylethanolamide derivatives and uses thereof” (ELIEM THERAPEUTICS, INC., priority 2016, dated 2023)
